Reference: US20130303439A1, “CHIMERIC PEPTIDES INCLUDING A PENETRATING PEPTIDE AND A BINDING DOMAIN OF PP2A CATALYTIC SUBUNIT TO CASPASE-9” (Institut National de la Sante et de la Recherche Medicale …, priority 2010, published 2013)
No end group written: not given here.

Experiments:
human caspase-9 = molecular target: T1, human caspase-9 (Homo sapiens, UniProt P55211); assay: Caspase-9-binding assay on cellulose-bound peptides containing human PP2Ac sequences; details: dodecapeptides bound onto cellulose membrane
T1 sequence (P55211 1-416): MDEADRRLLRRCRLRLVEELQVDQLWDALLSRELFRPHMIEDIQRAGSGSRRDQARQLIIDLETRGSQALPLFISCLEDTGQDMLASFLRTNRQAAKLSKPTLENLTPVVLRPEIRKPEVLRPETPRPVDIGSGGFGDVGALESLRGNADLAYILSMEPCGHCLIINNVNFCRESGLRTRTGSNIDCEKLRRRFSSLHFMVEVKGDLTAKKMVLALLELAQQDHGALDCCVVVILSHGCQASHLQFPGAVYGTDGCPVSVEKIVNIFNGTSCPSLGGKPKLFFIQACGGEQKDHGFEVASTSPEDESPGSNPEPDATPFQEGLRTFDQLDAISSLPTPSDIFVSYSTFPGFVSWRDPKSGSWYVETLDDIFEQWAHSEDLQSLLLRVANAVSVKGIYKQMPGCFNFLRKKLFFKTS
Experimental: Overlapping dodecapeptides covering the whole human PP2Ac sequence were prepared by atomated spot synthesis (Abimed, Langerfield, Germany) onto an amino-derived cellulose membrane, as described (Frank and Overwin, 1996 Meth. Mol. Biol. 66, 149-169; Gausepohl et al., 1992 Pept Res, 5, 315-320). The membrane was saturated using 3% BSA and 3% non-fat dry milk, incubated with purified human caspase-9 and after several washing steps, incubates with anti-caspase-9 antibody, followed by PO-conjugated secondary antibody. Positive spots were visualized using the ECL system.
To identify peptides containing PP2Ac sequences able to binding to caspase-9, a series of 150 overlapping dodecapeptides (shift of 2 amino acids) from human PP2Ac (sequence deduced from NCBI, accession number NP_00270601) were bound onto a cellulose membrane and incubated with purified caspase-9.

[1] = Cell penetration / internalization of peptides; format: cell-based
PP2Ac = molecular target: T2, PP2Ac (Mus musculus, UniProt P63330); assay: Pull down assay of biotinylated peptides with cell lysate, Western blot with PP2Ac antibody; format: binding, murine; details: cellular extracts from IL-2-stimulated cells
T2 construct: endogenous in cells; host or cells: TS1αβ murine T cell line, IL-2-stimulated, NP-40 lysate
Experimental: Biotinylated peptides were preincubated 2 h at 0-100 μM (in final concentration with lysate) at room temperature with 30 μl of streptavidin-coated immunomagnetic beads (Calbiochem, San Diego Calif.). During this time, […] exponentially growing TS1αβ cells were first washed twice with PBS and then lysed 10 minutes on ice in 400 μl of lysis buffer (50 mM Tris pH7.4, 150 mM NaCl, 20% glycerol, 1% NP-40, 10 mM EDTA, 1 mM PhenylMethylSulfonyl Fluoride, 10 mM NaF, 1 mM orthovanadate, “complete, EDTA-free” protease inhibitor cocktail from Roche).
Lysates were clarified at 13000 g for 10 minutes at 4° C. and were incubated with biotinylated peptides associated with the streptavidin-coated immunomagnetic beads 2 h at 4° C. Biotinylated peptides were pulled down with streptavidin beads and washed two times in 700 μl of lysis buffer on ice. Bound proteins and unbound lysates were then analyzed by SDS-PAGE and Western Blotting using PP1c or PP2Ac antibodies.
To determine the capacity of DPT-C9 to interact with PP2Ac, the inventors performed pull-down experiments using cellular extracts from IL-2-stimulated cells incubated with biotinylated peptides or beads alone.

TS1αβ cells = assay: Cell death assay (annexin V / PI flow cytometry); format: cell-based, murine; details: peptides at 150 μM
Experimental: (§1) An Annexin-V-FITC conjugated kit (Roche) was used for the assessment of outer leaflet exposure of phosphatidylserine (PS) in the plasma membrane of apoptotic cells. Staining was performed according to the manufacturer's instructions. A total of […] cells were analyzed by flow cytometry in a FACSCalibur cytofluometer (BD Biosciences). Necrotic cells were excluded by propidium iodide (PI) staining, and single annexin V positive cells were considered apoptotic. For apoptotic analysis the different peptides were used at 150 μM.
Using flow cytometry detection of annexin V and PI, the inventors analyzed the capacity of DPT-C9 to induce apoptosis in TS1αβ cells cultured in presence of IL-2. In contrast to non penetrating C9 peptide, DPT-C9 induced a 6-fold increase of apoptosis.

[2] = system: primary cells isolated from xenograft model of breast cancer (BC52); assay: Apoptosis by annexin staining in primary cells from xenograft model; format: cell-based; details: 100 microM, 16 h, compared to control non-treated cells
Experimental: (§2) FIG. 2 Cell isolated form xenograft models of lung cancer (LCF25), breast cancer (BC52) and uveal melanoma (KMP41) were cultured in DMEM medium in the absence (control) or in the presence of 100 microM of DPT-PP2Ah peptide. After 16 h of culture, apoptosis was estimated by annexin staining.
(§3) Annexin V-FITC kit was used for detection of apoptosis and staining was performed according to the manufacturer's instructions. A total of 1×10^5 cells were analyzed by flow cytometry in a FACSCalibur cytometer (BD Biosicences). Necrotic cells were excluded by PI staining and annexin V positive cells were considered apoptotic. The effect of DPT-PP2Ah was compared to untreated control cells or to DPT-C9h-treated cells. Penetrating peptides were used at […]. The shuttle alone (DPT-sh1) was also used as a control.

[3] = system: primary cells isolated from xenograft model of lung cancer (LCF25); assay: as above; format: cell-based; details: 100 microM, 16 h, compared to control non-treated cells
Experimental: as §2, §3

[4] = system: primary cells isolated from xenograft model of uveal melanoma (KMP41); assay: as above; format: cell-based; details: 100 microM, 16 h, compared to control non-treated cells
Experimental: as §2, §3

[5] = system: triple negative breast cancer model BC11; assay: In vivo tumor growth inhibition of primary human breast cancer xenografts; design: species or system mice; details: once daily for 5 weeks
From the text: The primary human xenografts were obtained as previously described (Marangoni et al., (2007) Clin Cancer Res 13:3989-3998, de Plater et al., (2010) Br J Cancer 103:1192-1200. Spontaneously growing mammary tumors […] were xenografted into nude immunodeficient mice to allow pharmacological assessments, and maintained from nude mouse to nude mouse serially passages.
For therapeutic experimental assays, 5- to 8-week old Swiss nu/nu female mice received a subcutaneous graft of tumor fragments with a volume of approximately 15 mm^3. Tumors developed at the graft site 2 to 6 weeks later. Mice bearing growing tumors with a volume of 40 to 200 mm^3 were individually identified and randomly assigned to the control or treatment groups (9-10 animals in each group) and treatments were started on day 1. Mice were weighed twice a week. Tumour-bearing mice were sacrificed when the tumor volume reached 2500 mm^3, defined as the ethical limit. Tumor volumes and antitumor activity were evaluated as previously reported (Marangoni et al., (2007) Clin Cancer Res 13:3989-3998).
DPT-PP2Ah peptide diluted in water/glucose (1 to 25 mg/kg) was given by intraperitoneally route 7 days per week.
To evaluate the potential antitumor effect of DPT-PP2Ah, we treated mice bearing the triple negative breast cancer model BC11. […]

Daudi cells = assay: Apoptosis assay (Annexin V-FITC), Example 2; format: cell-based, human; details: FIG. 1: 100 microM, 12 and 24 h, method says 150 mM, compared to control non-treated
Experimental: FIG. 1. Daudi cell line was cultured in RPMI 1640 medium in the presence of DPT-PP2Ah peptide (100 microM). At 12 and 24 h, we analyze the apoptotic effect of the peptide by annexine stainin.
as §3

Jurkat = assay: Cell death assay (annexin V / PI flow cytometry); format: cell-based, human; details: peptides at 150 μM
Experimental: as §1

HeLa = assay: Cell death assay (annexin V / PI flow cytometry); format: cell-based, human; details: peptides at 150 μM
Experimental: as §1

Daudi = assay: Cell death assay (annexin V / PI flow cytometry); format: cell-based, human; details: peptides at 150 μM
Experimental: as §1

CTLL = assay: Cell death assay (annexin V / PI flow cytometry); format: cell-based; details: murine CTLL; peptides at 150 μM
Experimental: as §1

[6] = molecular target: T3, PP2Ac (catalytic subunit of PP2A) from lysate of IL-2-stimulated murine TS1αβ cells (mouse, UniProt P63330 1-309); assay: pull-down from IL-2-stimulated TS1αβ cell lysate with biotinylated peptide on streptavidin beads, Western blot
T3 construct: Endogenous protein from cell lysate, detected by Western blot with a PP2Ac antibody; It may have been part of a PP2A holoenzyme in the lysate

[7] = molecular target: T4, caspase-9 from lysate of murine TS1αβ cells (mouse, UniProt Q8C3Q9 1-454, limits assumed); assay: as above
T4 construct: Endogenous protein in the lysate; also called murine caspase-9; mouse caspase-9
T4 sequence (looked up): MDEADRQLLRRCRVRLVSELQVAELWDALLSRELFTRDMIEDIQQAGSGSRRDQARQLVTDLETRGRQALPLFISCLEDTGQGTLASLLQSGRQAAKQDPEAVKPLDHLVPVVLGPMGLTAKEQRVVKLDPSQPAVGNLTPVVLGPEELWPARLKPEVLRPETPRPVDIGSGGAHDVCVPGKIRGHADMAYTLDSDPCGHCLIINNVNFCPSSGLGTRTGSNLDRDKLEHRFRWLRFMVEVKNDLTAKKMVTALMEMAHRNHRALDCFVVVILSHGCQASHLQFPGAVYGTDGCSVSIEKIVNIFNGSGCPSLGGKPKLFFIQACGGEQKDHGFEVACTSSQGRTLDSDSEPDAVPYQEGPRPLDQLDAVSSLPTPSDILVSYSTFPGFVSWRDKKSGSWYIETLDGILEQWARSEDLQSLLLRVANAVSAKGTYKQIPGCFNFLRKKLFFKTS

T2 sequence (P63330 whole entry): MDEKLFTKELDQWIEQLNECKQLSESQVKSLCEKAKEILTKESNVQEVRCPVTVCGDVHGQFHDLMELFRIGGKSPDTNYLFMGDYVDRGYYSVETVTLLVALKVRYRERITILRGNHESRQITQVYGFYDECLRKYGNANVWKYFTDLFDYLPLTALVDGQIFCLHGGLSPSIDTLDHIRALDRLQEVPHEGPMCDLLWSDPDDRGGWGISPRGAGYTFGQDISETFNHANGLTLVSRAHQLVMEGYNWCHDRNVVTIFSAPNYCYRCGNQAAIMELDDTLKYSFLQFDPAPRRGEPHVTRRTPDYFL
T3 sequence (P63330 whole entry): as above

Molecule: LDHIRALDRLQE (Synthetic PP2A peptide) [dodecapeptide from human PP2Ac]
- binding to purified caspase-9 (human caspase-9): bind to purified caspase-9

Molecule: DTLDHIRALDRL (Synthetic PP2A peptide) [dodecapeptide from human PP2Ac]
- binding to purified caspase-9 (human caspase-9): bind to purified caspase-9

Molecule: HIRALDRLQEVP (Synthetic PP2A peptide) [dodecapeptide from human PP2Ac]
- binding to purified caspase-9 (human caspase-9): bind to purified caspase-9

Molecule: VKKKKIKREIKI [DPT-sh1]
- Cell penetration [1]: Yes
- internalized [1]: are internalized
- interact with PP2Ac (PP2Ac): do not interact with PP2Ac
- induction of apoptosis / cell death (in words) (TS1αβ cells): behaves as negative control

Molecule: LDRLQEVPHEGP (Synthetic PP2A peptide) [dodecapeptide from human PP2Ac]
- binding to purified caspase-9 (human caspase-9): bind to purified caspase-9

Molecule: RALDRLQEVPHE (Synthetic PP2A peptide) [dodecapeptide from human PP2Ac]
- binding to purified caspase-9 (human caspase-9): bind to purified caspase-9

Molecule: VKKKKIKREIKIDTLDHIRALDRLQEVPHEGP (Synthetic DPT-PP2Ah)
- apoptosis (annexin staining) [2]: induces apoptosis
- apoptosis (annexin staining) [3]: induces apoptosis
- apoptosis (annexin staining) [4]: induces apoptosis
- tumor growth inhibition (TGI) ([5]; 1 mg/kg intraperitoneally, relative to 5 mg/kg): lower
- tumor growth inhibition (TGI) ([5]; 5 mg/kg intraperitoneally, end of treatment): significant tumor growth inhibition
- apoptosis (annexin staining) (Daudi cells): strongly induces apoptosis

Molecule: VKKKKIKREIKI-YVETLDGIFEQWAHSEDL (VKKKKIKREIKIYVETLDGIFEQWAHSEDL; Synthetic human DPT-C9) [DPT-C9h]
- increase of apoptosis (Jurkat): 5 fold
- increase of apoptosis (HeLa): 5 fold
- increase of apoptosis (Daudi): 5 fold
- induction of apoptosis / cell death (in words) (TS1αβ cells): unable to cause cell death
- apoptosis (annexin staining) (Daudi cells): lower apoptosis
- cell death (in words) (CTLL): unable to cause cell death

B1: DPT-C9r (fusion of DPT-sh1 and C9 reverse sequence) (peptide)
peptide: VKKKKIKREIKILDESRAWQELIGDLTEIY
modifications: also: biotinylated, position not given here
notes: Negative control peptide; Used biotinylated in the pull-down
- binding result [6]: no binding (tested: 0-100 µM peptide)

B2: C9 peptide (mouse caspase-9 aa 401-418, PP2Ac binding domain) (peptide)
peptide: YIETLDGILEQWARSEDL
modifications: also: biotinylated, position not given here
notes: Synthetic, non cell-penetrating peptide; Used biotinylated on streptavidin beads in the pull-down; also called C9m
- binding result [7]: no binding (tested: 0-100 µM peptide)

B3: DPT-C9 (fusion of DPT-sh1 shuttle and C9 sequence) (peptide)
peptide: VKKKKIKREIKIYIETLDGILEQWARSEDL
modifications: also: biotinylated, position not given here
notes: Used biotinylated in the pull-down
- binding result [7]: no binding (tested: 0-100 µM peptide)
